Several values for one entry are separate records, joined by “and”; a condition that tells them apart may be missing. Equal entries are not always repeated.
Columns and labels:
[1] = test system: patients with diverse metastatic cancers; assay: Phase I trial and phase II extension in diverse epithelial cancers: best response and time to progression; assay type: in vivo, human
Source text: The present Example reports the initial Phase I trial of 25 patients (pts) who had failed multiple prior therapies (some including topoisomcrasc-I/II inhibiting drugs), and the ongoing Phase II extension now reporting on 69 pts, including in colorectal (CRC), small-cell and non-small cell lung (SCLC, NSCLC, respectively), triple-negative breast (TNBC), pancreatic (PDC), esophageal, gastric, prostate, ovarian, renal, urinary bladder, head/neck and hepatocellular cancers. Patients were refractory/relapsed after standard treatment regimens for metastatic cancer. […]
A total of 69 patients (including 25 patients in Phase I) with diverse metastatic cancers having a median of 3 prior therapies were reported. Eight patients had clinical progression and withdrew before CT assessment. Thirteen CT-assessable pancreatic cancer patients were separately reported. The median TTP (time to progression) in PDC patients was 11.9 wks (range 2 to 21.4 wks) compared to median 8 wks TTP for the preceding last therapy.
A total of 48 patients with diverse cancers had at least 1 CT-assessment from which Best Response and Time to Progression (TTP) were determined. […] For SCLC (small cell lung cancer), of 4 assessable patients there were 2 PR, 0 SD and 2 PD for a total response of 2/4 (50%). For CRC (colorectal cancer), of 18 assessable patients there were 1 PR, 11 SD and 6 PD for a total response of 12/18 (67%). For esophageal cancer, of 4 assessable patients there were 1 PR, 2 SD and 1 PD for a total response of 3/4 (75%). For NSCLC (non-small cell lung cancer), of 5 assessable patients there were 1 PR, 3 SD and 1 PD for a total response of 4/5 (80%). Over all patients treated, of 48 assessable patients there were 7 PR, 27 SD and 14 PD for a total response of 34/48 (71%).

patients with mSCLC = assay: Phase I/II trial (NCT01631552), mSCLC: efficacy by RECIST 1.1; assay type: in vivo, human
Source text: Patients ≥18 years of age with mSCLC who had relapsed or were refractory to at least one prior standard line of therapy for stage IV metastatic disease, and with measurable tumors by CT, were enrolled. […] Previous therapy had to be completed at least 4 weeks before enrollment.
The primary endpoint was the proportion of patients with a confirmed objective response, assessed approximately every 8 weeks until disease progression, by each institution's radiology group or a contracted local radiology service. Objective responses were assessed by Response Evaluation Criteria in Solid Tumors, version 1.1 (RECIST 1.1) (Eisenhauer et al., 2009, Eur J Cancer 45:228-47). Partial (PR) or complete responses (CR) required confirmation within 4 to 6 weeks after the initial response. Clinical benefit rate (CBR) is defined as those patients with an objective response plus stable disease (SD) ≥4 months. Survival was monitored every 3 months until death or withdrawal of consent.
The protocol provided that objective response rates (ORR) were determined for patients who received ≥2 doses (1 cycle) and had their initial 8-week CT assessment. Duration of response is defined in accordance to RECIST 1.1 criteria, with those having an objective response marked from time of the first evidence of response until progression, while stable disease duration is marked from the start of treatment until progression. PFS and OS were defined from the start of treatment until an objective assessment of progression was determined (PFS) or death (OS). Duration of response, PFS, and OS were estimated by Kaplan-Meier methods, with 95% confidence intervals (CI), using MedCalc Statistical Software, version 16.4.3 (Ostend, Belgium).

[2] = 48 assessable pts (excluding PDC)
[3] = 48 assessable pts (excluding PDC), listed as hRS7-SN-38
[4] = CRC, person, after 10 months of treatment
[5] = esophageal cancer, 4 assessable patients
[6] = SG as ≥3 line, no prior topotecan/irinotecan (N = 9)
[7] = SG as ≥3 line, prior topotecan/irinotecan (N = 15)
[8] = prior immune checkpoint inhibitor

## sacituzumab govitecan
[1]; [2]
  Partial response (PR), % of patients: 15%
  Stable disease (SD), % of patients: 56%
  Stable disease (SD), number of patients: 27
  Total response [PR+SD], % of patients: 79%
  Total response [PR+SD], number of patients: 38
[1]; [3]
  Total response [PR+SD], % of patients: 71%
  Total response [PR+SD], number of patients: 34/48
[1]; CRC, 12/18
  Total response [PR+SD]: 67%
[1]; CRC, 18 assessable patients
  PD, number of patients: 6
  PR, number of patients: 1
[1]; [4]
  CEA after treatment (decrease from 781), single patient: 26.5 ng/mF
  Maximum reduction in target lesions, single patient: 65%
[1]; CRC, person, starting dose 8 mg/kg
  Reduction in target lesions on first CT assessment (PR), single patient: 37%
[1]; NSCLC, 4/5
  Total response [PR+SD]: 80%
[1]; NSCLC, 5 assessable patients
  PD, number of patients: 1
  PR, number of patients: 1
[1]; NSCLC, person, after 6th dose
  Primary target lesion size at first CT (from 5.6 cm), single patient: 3.2 cm
[1]; SCLC, 2/4
  Total response [PR+SD]: 50%
[1]; SCLC, 4 assessable patients
  PD, number of patients: 2
  PR, number of patients: 2
[1]; SCLC, person, 12 mg/kg reduced to 6.8 mg/kg, after two months
  Reduction in target lesions, single patient: 38%
[1]; TNBC, 6/8
  Total response [PR+SD]: 75%
[1]; TNBC, 8 assessable patients
  PD, number of patients: 2
  PR, number of patients: 2
[1]; all, 48 assessable patients
  PD, number of patients: 14
  PR, number of patients: 7
[1]; esophageal cancer, 3/4
  Total response [PR+SD]: 75%
[1]; [5]
  PD, number of patients: 1
  PR, number of patients: 1
Patients with mSCLC
  Duration of SD in ten patients with SD ≥4 months, Kaplan-Meier-derived median: 5.6 months
  Median OS for the seven confirmed PR patients: 9.2 months
  Median OS for the ten patients with SD ≥4 months: 8.3 months
Patients with mSCLC; 8 mg/kg starting dose, thirteen patients
  Confirmed PR: 8%
Patients with mSCLC; 10 mg/kg starting dose (N = 30)
  Confirmed PR: 20%
Patients with mSCLC; 10 mg/kg starting dose, 14/30
  CBR (clinical benefit rate): 47%
Patients with mSCLC; 21 of 43 CT-assessable patients
  Patients with a reduction of tumor size from baseline: 49%
Patients with mSCLC; 21 of 43 assessable patients
  Stable disease (SD), including unconfirmed PR: 49%
Patients with mSCLC; 43 with response assessment
  PD, %: (35%)
Patients with mSCLC; Kaplan-Meier
  Duration of confirmed objective response, median: 5.7 months
Patients with mSCLC; SG as second line (N = 19)
  Clinical benefit rate (PR + SD ≥ 4 months), %: (37%)
  OS, median: 8.1 months
  PFS, median: 3.6 months
Patients with mSCLC; SG as ≥3 line (N = 24)
  Clinical benefit rate (PR + SD ≥ 4 months), %: (38%)
  OS, median: 7.0 months
  PFS, median: 3.7 months
Patients with mSCLC; [6]
  Clinical benefit rate (PR + SD ≥ 4 months), %: (33%)
  OS, median: 5.5 months
  PFS, median: 3.7 months
Patients with mSCLC; [7]
  Clinical benefit rate (PR + SD ≥ 4 months), %: (40%)
  OS, median: 8.8 months
  PFS, median: 3.8 months and 3.6 months
Patients with mSCLC; intention-to-treat N = 53
  Overall survival, median: 7.0 months
  Progression-free survival, median: 3.6 months
Patients with mSCLC; [8]
  Tumor shrinkage (SD lasting 8.7 months), single patient: 17%
  Tumor shrinkage on first assessment (unconfirmed PR), single patient: 54%
Patients with mSCLC; resistant (N = 19) to 1st line
  Clinical benefit rate (PR + SD ≥ 4 months), %: (26%)
  OS, median: 6.2 months
  PFS, median: 3.6 months
Patients with mSCLC; resistant to first-line platinum, nineteen patients
  Confirmed PR: 16%
Patients with mSCLC; second-line setting, 3/19
  PR: 16%
Patients with mSCLC; sensitive (N = 24) to 1st line
  Clinical benefit rate (PR + SD ≥ 4 months), %: (50%)
  OS, median: 8.3 months
  PFS, median: 3.8 months
Patients with mSCLC; sensitive to first-line platinum, 24 patients
  Confirmed PR: 17%
Patients with mSCLC; seven confirmed PR
  Median time to response: 2.0 months
Patients with mSCLC; seven patients
  Median PFS for the confirmed PR group: 7.9 months
Patients with mSCLC; third or higher line (N = 24)
  Confirmed PR: 16%

From US20210316003A1 (Immunomedics, Inc., priority 2020, published 2021)
